According to patent US6573378B1, “Antiviral guanine derivatives” (Novartis International Pharmaceutical Ltd., priority 1983, dated 2003):
Values after ≈ are worked out from the molar mass of the structure shown. Where a name gives a salt, the structure may show the parent alone.

Legend:
[1] = system: Herpes simplex type 1 virus (HFEM strain); test: Plaque reduction, Herpes simplex type 1 virus (HFEM strain) in Vero cells (Method 1); type: cell-based; conditions: 50% reduction in number of virus plaques, 4 days at 37° C.; for IC50: Human alphaherpesvirus 1, Vero, 96 h, read-out: PDD50 Herpes simplex type 1 virus HFEM strain in Vero cells
Procedure: (§1) Vero (Arican Green Monkey Kidney) cells were grown to confluence in 24 well multidishes, each well being 1.6 cm in diameter. The cells were infected with Herpes simplex type 1 virus (HFEM strain) and overlaid with 0.5 ml of 0.9% agarose (w/v) in maintenance medium. The test compound, prepared in maintenance medium in concentrations ranging from 100 to 0.3 μg/ml in half-log dilution steps, was added in 0.5 ml volume. The virus infected cultures were then incubated at 37° C. for 4 days before fixing in 4% formaldehyde solution and staining with carbol fuchsin.

[2] = system: Herpes simplex type 1 virus, strain SC16; test: Virus cytopathic effect (CPE) reduction, Herpes simplex type 1 virus strain SC16 in MRC-5 cells (Method 2); type: cell-based; conditions: 50% reduction of virus CPE, 3 days at 37° C.; for IC50: Human alphaherpesvirus 1, SC16, MRC5, 72 h, read-out: PDD50 Herpes simplex type 1 virus SC16 strain in MRC-5 cells
Procedure: (§2) MRC-5 cells were infected in suspension with Herpes simplex type 1 virus, strain SC16. The infected cell suspension was dispensed (0.1 ml) in 96 well microtitre plates containing the test drugs in maintenance medium in concentrations ranging from 100 to 0.03 μg/ml in half-log dilution steps (0.1 ml per well). The plates were then icubated at 37° C. for 3 days when the virus cytopathic effect (CPE) in the control wells reached 100%. The plates were fixed in 4% formaldehyde solution and stained with carbol fuchsin. […] Plates using uninfected cells were run in parallel to determine the minimum concentration of test compound which caused cytotoxicity (MTD).

[3] = system: Herpes simplex type 2 virus (MS strain); test: Plaque reduction, Herpes simplex type 2 virus (MS strain) in Vero cells (Method 1); type: cell-based; conditions: Human alphaherpesvirus 2, Method 1, plaque reduction, read-out: PDD50 Herpes simplex type 2 virus MS strain in Vero cells
Procedure: as §1
(§3) Compounds were also tested against Herpes simplex type 2 virus (MS strain) in Vero cells using Method 1 and in MRC-5 cells using Method 2. In the latter test, the incubation time was reduced to 24 hours.

[4] = system: Herpes simplex type 2 virus (MS strain); test: Virus CPE reduction, Herpes simplex type 2 virus (MS strain) in MRC-5 cells (Method 2, 24 hours incubation); type: cell-based; conditions: Human alphaherpesvirus 2, MRC5, Method 2, CPE reduction, incubation 24 hours, read-out: PDD50 Herpes simplex type 2 virus MS strain in MRC-5 cells
Procedure: as §2, §3

[5] = Blood concentration of 9-(4-hydroxy-3-hydroxymethylbut-1-yl)guanine in mice after oral administration of derivatives (Method 3); type: in vivo; conditions: female Balb/C mice, oral gavage 0.2 mmoles/kg of administered compound, blood 15 minutes later, pooled from three mice; analyte 9-(4-hydroxy-3-hydroxymethylbut-1-yl)guanine
Procedure: Compounds were administered by oral gavage (0.2 mmoles/kg in 0.1 ml of 1% carboxymethyl cellulose) to 20 g female Balb/C mice which had been starved for 18 hours. Fifteen minutes later, blood was collected from three mice by cardiac puncture using heparinised syringes. Equal aliquots were pooled and an equal volume of 16% trichloroacetic acid added. Following centrifugation (8,500 g) to remove precipitated proteins, the resulting mixture was analysed by high performance liquid chromatography using a C18 Nova-Pak cartridge eluted with Buffer A (50 mM NaH2PO4, pH4.6) and Buffer B (10% Buffer A, 10% water, 80% methanol) in a gradient from 1% to 95% Buffer B. 9-(4-Hydroxy-3-hydroxymethylbut-1-yl)guanine was assayed with a Pye-Unicam PU4021 u.v. detector set at 254 nm.

SMILES: Nc1nc2c(ncn2CCC(CO)CO)c(=O)[nH]1 [Example 4, 9-(4-Hydroxy-3-hydroxymethylbut-1-yl)guanine]
- IC50 [1]: 1.3 µg/mL (≈ 5.13 µM)
- IC50 [2]: 0.9 µg/mL (≈ 3.55 µM)
- IC50 [3]: 2.3 µg/mL (≈ 9.08 µM)
- IC50 [4]: 0.6 µg/mL (≈ 2.37 µM)

SMILES: Nc1nc2c(ncn2CCC(CO)CO)c(=O)[nH]1.[Na] [Example 12, 9-(4-Hydroxy-3-hydroxymethylbut-1-yl)guanine, Sodium Salt]
- IC50 [1]: 2.2 µg/mL
- IC50 [2]: 0.7 µg/mL

SMILES: Nc1nc2c(ncn2CCC(CO)CO)c(=O)[nH]1 [Example 13, 9-(4-Hydroxy-3-hydroxymethylbut-1-yl)guanine, Potassium Salt]
- PDD50 Herpes simplex type 1 virus HFEM strain in Vero cells ([1]; Potassium Salt): 1.7 µg/mL
- PDD50 Herpes simplex type 1 virus SC16 strain in MRC-5 cells ([2]; Potassium Salt): 0.7 µg/mL

SMILES: COc1nc(N)nc2c1ncn2CCC(CO)CO [Example 15, 2-Amino-9-(4-hydroxy-3-hydroxymethylbut-1-yl)-6-methoxypurine]
- IC50 [1]: > 100 µg/mL
- IC50 [2]: > 100 µg/mL
- IC50 [3]: 63 µg/mL (≈ 236 µM)
- melting point: 117 to 119 °C
- IC50 [4]: 49 µg/mL (≈ 183 µM)

SMILES: CCOc1nc(N)nc2c1ncn2CCC(CO)CO [Example 16, 2-Amino-6-ethoxy-9-(4-hydroxy-3-hydroxymethylbut-1-yl)purine]
- melting point: 150 to 152 °C

SMILES: Nc1nc(OCc2ccccc2)c2ncn(CCC(CO)CO)c2n1 [Example 17, 2-Amino-6-benzyloxy-9-(4-hydroxy-3-hydroxymethylbut-1-yl)purine]
- melting point: 146 to 147.5 °C

SMILES: Nc1nc(N)c2ncn(CCC(CO)CO)c2n1 [Example 21, 2,6-Diamino-9-(4-hydroxy-3-hydroxymethylbut-1-yl)purine]
- melting point: 187 to 190 °C

SMILES: CC(=O)OCC(CCn1cnc2c(=O)[nH]c(N)nc21)COC(C)=O [Example 22, 9-(4-Acetoxy-3-acetoxymethylbut-1-yl)guanine]
- IC50 [1]: > 100 µg/mL
- IC50 [2]: > 100 µg/mL
- IC50 [3]: > 100 µg/mL
- melting point: 202 to 205 °C
- IC50 [4]: 83 µg/mL (≈ 246 µM)

SMILES: CCC(=O)OCC(CCn1cnc2c(=O)[nH]c(N)nc21)COC(=O)CC [Example 23, 9-(4-Propionyloxy-3-propionyloxymethylbut-1-yl)guanine]
- IC50 [1]: > 100 µg/mL
- IC50 [2]: 25 µg/mL (≈ 68.4 µM)
- IC50 [3]: > 100 µg/mL
- IC50 [4]: 85 µg/mL (≈ 233 µM)

SMILES: CCC(=O)Nc1nc2c(ncn2CCC(COC(=O)CC)COC(=O)CC)c(=O)[nH]1 [Example 24, N^2-Propionyl-9-(4-propionyloxy-3-propionyloxymethyl-but-1-yl)guanine]
- IC50 [1]: > 100 µg/mL
- IC50 [2]: > 100 µg/mL
- IC50 [3]: > 100 µg/mL
- IC50 [4]: 65 µg/mL (≈ 154 µM)

SMILES: CCCCCC(=O)OCC(CCn1cnc2c(=O)[nH]c(N)nc21)COC(=O)CCCCC [Example 25, 9-(4-Hexanoyloxy-3-hexanoyloxymethylbut-1-yl)guanine]
- IC50 [1]: 1.9 µg/mL (≈ 4.23 µM)
- IC50 [2]: 1 µg/mL (≈ 2.22 µM)
- IC50 [3]: 1.6 µg/mL (≈ 3.56 µM)
- melting point: 198.5 to 201 °C
- IC50 [4]: 0.9 µg/mL (≈ 2 µM)

SMILES: Nc1nc2c(ncn2CCC(COC=O)COC=O)c(=O)[nH]1 [Example 26, 9-(4-Formyloxy-3-formyloxymethylbut-1-yl)guanine]
- melting point: 195 to 198 °C

SMILES: Nc1nc2c(ncn2CCC(COC(=O)n2ccnc2)COC(=O)n2ccnc2)c(=O)[nH]1 [Example 27, 9-[4-(N-Imidazolylcarbonyloxy)-3-(N-imidazolylcarbonyloxymethyl)-but-1-yl]guanine]
- IC50 [1]: 13 µg/mL (≈ 29.5 µM)
- IC50 [2]: 1.5 µg/mL (≈ 3.4 µM)
- IC50 [3]: 2.8 µg/mL (≈ 6.34 µM)
- IC50 [4]: 5.7 µg/mL (≈ 12.9 µM)

SMILES: CC(C)(C)C(=O)OCC(CCn1cnc2c(=O)[nH]c(N)nc21)COC(=O)C(C)(C)C [Example 30, 9-(4-Pivalyloxy-3-pivalyloxymethylbut-1-yl)guanine]
- melting point: 225 to 237 °C

SMILES: CC(=O)OCC(CO)CCn1cnc2c(=O)[nH]c(N)nc21 (stereo not shown) [Example 31, 9-(4-Acetoxy-3-hydroxymethylbut-1-yl)guanine]
- IC50 [1]: 24 µg/mL (≈ 81.3 µM)
- IC50 [2]: 10 µg/mL (≈ 33.9 µM)
- melting point: 194 to 200 °C

SMILES: Nc1nc2c(ncn2CCC(CO)COC(=O)c2ccccc2)c(=O)[nH]1 (stereo not shown) [Example 32, 9-(4-Benzoyloxy-3-hydroxymethylbut-1-yl)guanine]
- IC50 [1]: 95 µg/mL (≈ 266 µM)
- IC50 [2]: 3 µg/mL (≈ 8.39 µM)
- melting point: 156 to 168 °C

SMILES: CCCCCC(=O)OCC(CO)CCn1cnc2c(=O)[nH]c(N)nc21 (stereo not shown) [Example 33, 9-(4-Hexanoyloxy-3-hydroxymethylbut-1-yl)guanine]
- melting point: 179 to 181 °C

SMILES: CCCCCCCCCCCCCCCC(=O)OCC(CO)CCn1cnc2c(=O)[nH]c(N)nc21 (stereo not shown) [Example 34, 9-(4-Hexadecanoyloxy-3-hydroxymethylbut-1-yl)guanine]
- IC50 [1]: 16 µg/mL (≈ 32.5 µM)
- IC50 [2]: 2 µg/mL (≈ 4.07 µM)
- melting point: 183 to 191 °C

SMILES: N.N.Nc1nc2c(ncn2CCC(CO)COP(=O)(O)O)c(=O)[nH]1 (stereo not shown) [Example 35, 9-(4-Hydroxy-3-hydroxymethylbut-1-yl)guanine 4′-Phosphate Diammonium Salt]
- Concentration of Example 4 in Blood [5]: 1100 ng/mL

SMILES: CC(=O)Nc1nc2c(ncn2CCC(CO)CO)c(=O)[nH]1 [Example 36, N^2-Acetyl-9-(4-hydroxy-3-hydroxymethylbut-1-yl)guanine]
- melting point: 143 to 146 °C

SMILES: CCCCCC(=O)Nc1nc2c(ncn2CCC(CO)CO)c(=O)[nH]1 [Example 37, N^2-Hexanoyl-9-(4-hydroxy-3-hydroxymethylbut-1-yl)guanine]
- melting point: 86 to 88 °C

SMILES: CC(C)Oc1nc(N)nc2c1ncn2CCC(CO)CO [Example 38, 2-Amino-9-(4-hydroxy-3-hydroxymethylbut-1-yl)-6-isopropoxypurine]
- melting point: 111.5 to 113.5 °C

SMILES: Nc1nc(Oc2ccccc2)c2ncn(CCC(CO)CO)c2n1 [Example 39, 2-Amino-9-(4-hydroxy-3-hydroxymethylbut-1-yl)-6-phenoxypurine]
- melting point: 173 to 175 °C
